Experimental data taken from a compilation of properties of binary mixtures (doi:10.1016/j.molliq.2022.119918).

Test: xn = mol fraction of the nth substance listed
Settings: 100 kPa

CS(C)=O + COCCCC[n+]1ccn(C)c1.NCC(=O)[O-]
x2 = 0
Settings | viscosity [mPa·s]
288.15 K | 2.47
293.15 K | 2.21
298.15 K | 1.99
303.15 K | 1.81
313.15 K | 1.51
318.15 K | 1.39

COCCCC[n+]1ccn(C)c1.NCC(=O)[O-] + CS(C)=O
viscosity [mPa·s]
Settings | x1 = 0.1009 | x1 = 0.1984 | x1 = 0.299 | x1 = 0.3986 | x1 = 0.4986 | x1 = 0.6006 | x1 = 0.701 | x1 = 0.7941 | x1 = 0.907 | x1 = 1
288.15 K | 7.64 | 11.87 | 20.11 | 32.75 | – | 66.91 | 88.2 | 112 | 149.9 | 180.6
293.15 K | 6.23 | 9.49 | 15.68 | 24.97 | – | – | 66.19 | – | 110.8 | 130.1
298.15 K | 5.05 | 7.6 | 12.46 | 19.85 | 29.5 | 40.49 | 52.63 | – | 83.6 | –
303.15 K | – | 6.27 | – | 15.9 | 23.66 | 32.57 | 42.38 | 52.54 | 65.49 | 74.4
308.15 K | – | 5.29 | – | 13.2 | 19.51 | 26.99 | – | 42.67 | 52.32 | 58.09
313.15 K | 3.15 | 4.59 | 7.18 | 11.14 | 16.4 | 22.63 | 29.37 | 35.24 | 42.06 | 46.29
318.15 K | – | 3.92 | 6.04 | 9.3 | 13.46 | 18.67 | 23.75 | 28.16 | 32.95 | 36.43

CC(N)C(=O)[O-].COCCCCn1cc[n+](C)c1 + CS(C)=O
viscosity [mPa·s]
Settings | x1 = 0.1009 | x1 = 0.1996 | x1 = 0.3012 | x1 = 0.3985 | x1 = 0.4922 | x1 = 0.5996 | x1 = 0.6966 | x1 = 0.7973 | x1 = 0.8997 | x1 = 1
288.15 K | 8.27 | – | – | 40.5 | 63.89 | – | 135.6 | 203 | – | 403
293.15 K | 7.89 | – | – | 31.54 | 48.62 | 72 | 100.9 | 143.7 | 206 | –
298.15 K | 6.04 | – | 15.05 | 24.76 | 36.87 | 53.3 | 73 | 101.8 | 142.7 | 180.6
303.15 K | 4.95 | – | 12.31 | 19.81 | 29.28 | – | 56.62 | 77.6 | 107.6 | 132.1
308.15 K | 4.21 | 6.25 | 10.23 | – | 23.47 | – | – | – | 80.8 | 98.3
313.15 K | 3.64 | 5.27 | 8.32 | 13.02 | 18.84 | 26.78 | – | 47.36 | 61.67 | 73.5
318.15 K | – | 4.57 | 7.01 | 10.65 | – | – | 28.53 | – | 47.83 | 55.86

CS(C)=O + NC(C)C(=O)[O-].COCCCCN1C=[N+](C=C1)C
x2 = 0
Settings | viscosity [mPa·s]
288.15 K | 2.47
293.15 K | 2.21
298.15 K | 1.99
303.15 K | 1.81
313.15 K | 1.51
318.15 K | 1.39
